# Test results: EP0639584B1, “Preparation and screening of highly diverse peptide libraries for binding activity” (INTERPHARM LABORATORIES LTD., priority 1993, dated 1995)
# Tests used:
# [1] = test system: Monoclonal antibody to human β-endorphin; assay: Staining of beads with anti-endorphin McAb clone 3-E7 (alkaline phosphatase/BCIP); assay type: binding, mouse; conditions: antibody 200 ng/ml, BCIP 2 hours
# Description: Staining of the beads was performed using the following steps (all incubation steps were performed with continuous mixing of the beads): • a. Washes of the beads with wash buffer. • b. Incubation of the beads with blocking buffer for 45 minutes to block non-specific interactions. • c. Incubation of the beads with the monoclonal antibody to human β-endorphin diluted to 200 ng/ml in blocking buffer for 40 minutes. • d. Six washes with wash buffer. • e. Incubation of the beads with the polyclonal rabbit antibodies against mouse IgG conjugated with alkaline phosphatase, diluted 1:1000 in blocking buffer for 40 minutes. • f. Six washes with wash buffer and one wash with Tris (25mM), NaC1 (125 mM), Tween (0.1%). • g. Incubation of the beads with BCIP diluted to 500 ug/ml in 0.1M Tris pH 9.0, for 2 hours. • h. Two washes with H2O, transfer of the beads to petri dishes and observation for blue stained beads (using a stereomicroscope).
# TBP1 = biological target: T1, TBP1 (Homo sapiens, UniProt P19438); assay: Binding of TBP1 to peptides on beads, ELISA with soluble substrate (pNPP, O.D. at 405 nm)
# T1 construct: soluble extracellular domain of TNF receptor type 1, p55; host or cells: CHO
# T1 sequence (P19438 41-201 limits assumed): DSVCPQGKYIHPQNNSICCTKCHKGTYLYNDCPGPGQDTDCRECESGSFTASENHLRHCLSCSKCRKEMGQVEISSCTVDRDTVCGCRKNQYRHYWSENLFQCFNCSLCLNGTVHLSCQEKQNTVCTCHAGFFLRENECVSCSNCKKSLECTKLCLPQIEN
# rabbit immunoglobulins = assay: Immunostaining of library beads containing N-DSer-DLys-LVal to verify specificity; assay type: binding
# Description: 7. First screening of the polystyrene peptide library with TBP1. One quarter (400 µl packed) of the total number of beads were blocked with 5% FBS in PBS (1 ml for 45 minutes), to avoid nonspecific binding, and incubated with TBP1 (1 ml at a concentration of 10µg/ml in FBS/PBS for 45 minutes) followed by polyclonal rabbit anti-TBP1 (1:500 in FBS/PBS, 1 ml for 1 hour) and alkaline phosphatase conjugated goat anti-rabbit Ig antibodies (1:2000 in FBS/PBS, 1 ml for 40 minutes). The signal was generated by BCIP/NBT substrate (12 ml in 9 cm petri dish; further details as in 5 above). More than 50 stained beads were selected and three of them were subjected to sequencing. […] The BCIP/NBT substrate that we used in order to stain the beads could not be destained by any treatment that we tried (organic solvents, urea, SDS, NaOH, boiling, sonication and combinations of all of the above), and we therefore decided to use another alkaline phosphatase substrate which could be readily destained. […]
# [2] = test system: Immunoglobulins from other animal species and from humans; assay: Immunostaining of library beads containing N-DSer-DLys-LVal to verify specificity, other immunoglobulins; assay type: binding
substance,measurement,setting,value
n-Tyr-Gly-Gly-Phe-Leu [Model YGGFL],Number of Blue-stained Beads,[1],most of the beads
N-DAla-DGlu-LMet,OD,"TBP1; relative to background, peptide on around 100,000 beads, soluble substrate",ten times higher than background
same,OD in presence of the TBP1,TBP1; relative to the antibodies only,four times higher
same,response with antibodies alone,TBP1; without TBP1,lack of response
n-His-Pro-Tyr-Pro-Pro (HPYPP; on TentaGel beads; printed: His-Pro-Tyr-Pro-Pro) [Model HPYPP],Number of Blue-stained Beads,[1],none of the beads
N-DSer-DLys-LVal,recognition of rabbit immunoglobulins,rabbit immunoglobulins; from both rabbit anti-TBP1 antiserum and normal rabbit serum,specifically recognized
same,Immunostaining performed with and without TBP1,rabbit immunoglobulins; surface staining,specificity to the antibodies
same,recognition of immunoglobulins from other animal species and from humans,[2],not recognized
